Measured values from ChEMBL document CHEMBL1152338, “Discorhabdins revisited: cytotoxic alkaloids from southern australian marine sponges of the genera Higginsia and Spongosorites” (J Nat Prod, 2009).
≈ marks a conversion by molar mass, not a printed value.

Legend:
Format in all cases: functional, cell-based
A549 = experiment: Cytotoxicity against human A549 cells
MDA-MB-231 = experiment: Cytotoxicity against human MDA-MB-231 cells
HT-29 = experiment: Cytotoxicity against human HT-29 cells

Compound | IC50 (A549) [µg/mL] | IC50 (MDA-MB-231) [µg/mL] | IC50 (HT-29) [µg/mL]
O=C1C2=C3C4=[N+](CCc5c[nH]c1c54)[C@@H]1[C@H](O)C=C4S[C@@H](C[C@@]43[C@H]1O)N2 | 0.1 | 0.1 | 0.1
CN1CCc2cn(C)c3c2C1=CC(=O)C3=O [DAMIRONE A] | 5 (≈ 23.1 µM) | 5 (≈ 23.1 µM) | 5 (≈ 23.1 µM)
O=C1C[C@H]2S[C@H]3C[C@]2(C=C1Br)C1=C(N3)C(=O)c2[nH]cc3c2C1=NCC3 [DISCORHABDINE A] | 0.05 (≈ 0.12 µM) | 0.05 (≈ 0.12 µM) | 0.05 (≈ 0.12 µM)
O=C1C2=C(C3=NCCc4c[nH]c1c43)[C@]13C=C(Br)[C@@H](O)C[C@H]1S[C@@H](C3)N2 | 0.1 (≈ 0.239 µM) | 0.1 (≈ 0.239 µM) | 0.1 (≈ 0.239 µM)
C[N+]1=C2C=C(NCCc3ccc(O)cc3)C(=O)c3[nH]cc(c32)CC1 [MAKALUVAMINE J] | 5 | 5 | 5
